# In ChEMBL document CHEMBL4308873, “Synthesis and biological evaluation of Ginsenoside Compound K analogues as a novel class of anti-asthmatic agents” (2019):
# Experiments:
# Assay type in all cases: functional
# Mus musculus [1] = assay: Anti-asthmatic activity in ovalbumin-induced asthmatic BALB/c mouse model assessed as IgE level in plasma at 20 mg/kg, po co-administered with ovalbumin from day 21 to 28 of experiment period by ELISA (reference value: 2544.05 +/- 229.07 ng/ml)
# Mus musculus [2] = assay: (§1) Anti-asthmatic activity in ovalbumin-induced asthmatic BALB/c mouse model assessed as 25 mg/ml methacholine-induced airway resistance at 0.6 mg/kg, po co-administered with ovalbumin from day 21 to 28 of experiment period measured post last dose by plethysmography (reference value: 14.03 +/- 1.15 cmH2O/ml)
# Mus musculus [3] = assay: as §1, with “50” for “25”, “64.33” for “14.03”, “3.41” for “1.15”
# Mus musculus [4] = assay: as §1, with “100” for “25”, “84.5” for “14.03”, “2.41” for “1.15”
# Mus musculus [5] = assay: as §1, with “12.5” for “25”, “6.03” for “14.03”, “1.02” for “1.15”
# Mus musculus [6] = assay: as §1, with “6.25” for “25”, “2.44” for “14.03”, “0.87” for “1.15”
# Mus musculus [7] = assay: Anti-asthmatic activity in ovalbumin-induced asthmatic BALB/c mouse model assessed as IgE level in plasma at 0.6 mg/kg, po co-administered with ovalbumin from day 21 to 28 of experiment period by ELISA (reference value: 2544.05 +/- 229.07 ng/ml)
# Mus musculus [8] = assay: as §1, with “12.5” for “25”, “20” for “0.6”, “6.03” for “14.03”, “1.02” for “1.15”
# Mus musculus [9] = assay: as §1, with “50” for “25”, “20” for “0.6”, “64.33” for “14.03”, “3.41” for “1.15”
# Mus musculus [10] = assay: as §1, with “6.25” for “25”, “20” for “0.6”, “2.44” for “14.03”, “0.87” for “1.15”
# Mus musculus [11] = assay: as §1, with “20” for “0.6”
# Mus musculus [12] = assay: as §1, with “100” for “25”, “20” for “0.6”, “84.5” for “14.03”, “2.41” for “1.15”
SMILES,Activity (Mus musculus [1]) [ng/mL],Activity (Mus musculus [8]) [cmH2O/ml],Activity (Mus musculus [9]) [cmH2O/ml],Activity (Mus musculus [10]) [cmH2O/ml],Activity (Mus musculus [11]) [cmH2O/ml],Activity (Mus musculus [12]) [cmH2O/ml],other results
CC(=O)O[C@H]1CC[C@]2(C)[C@H]3CC(=O)[C@@H]4[C@@H]([C@](C)(CCC=C(C)C)O[C@@H]5O[C@H](CO)[C@@H](O)[C@H](O)[C@H]5O)CC[C@@]4(C)[C@]3(C)CC[C@H]2C1(C)C,3224.5,–,–,–,–,–,–
CC(C)=CCC[C@](C)(O[C@@H]1OC[C@@H](O)[C@H](O)[C@H]1O)[C@H]1CC[C@]2(C)[C@@H]1C(=O)C[C@@H]1[C@@]3(C)CC[C@H](O)C(C)(C)[C@@H]3CC[C@]12C,2439.3,–,–,–,–,–,–
CO[C@H]1CC[C@]2(C)[C@H]3CC(=O)[C@@H]4[C@@H]([C@](C)(CCC=C(C)C)O[C@@H]5O[C@H](CO)[C@@H](O)[C@H](O)[C@H]5O)CC[C@@]4(C)[C@]3(C)CC[C@H]2C1(C)C,3593.38,–,–,–,–,–,–
CC(=O)OCC(=O)[C@@]1(O)[C@H](C)C[C@H]2[C@@H]3CCC4=CC(=O)C=C[C@]4(C)[C@@]3(F)[C@@H](O)C[C@@]21C [DEXAMETHASONE ACETATE],–,–,–,–,–,–,Activity (Mus musculus [2]): 3.36 cmH2O/ml; Activity (Mus musculus [3]): 3.04 cmH2O/ml; Activity (Mus musculus [4]): 3.06 cmH2O/ml; Activity (Mus musculus [5]): 3.09 cmH2O/ml; Activity (Mus musculus [6]): 2.89 cmH2O/ml; Activity (Mus musculus [7]): 1131.05 ng/mL
CC(C)(O)CCC[C@](C)(O[C@@H]1O[C@H](CO)[C@@H](O)[C@H](O)[C@H]1O)[C@H]1CC[C@]2(C)[C@@H]1C(=O)C[C@@H]1[C@@]3(C)CC[C@H](O)C(C)(C)[C@@H]3CC[C@]12C,2027.95,–,–,–,–,–,–
CC(C)=CCC[C@](C)(O[C@H]1O[C@@H](C)[C@H](O)[C@@H](O)[C@H]1O)[C@H]1CC[C@]2(C)[C@@H]1C(=O)C[C@@H]1[C@@]3(C)CC[C@H](O)C(C)(C)[C@@H]3CC[C@]12C,2706.85,–,–,–,–,–,–
CC(C)=CCC[C@](C)(O[C@@H]1O[C@H](CO)[C@@H](O)[C@H](O)[C@H]1O)[C@H]1CC[C@]2(C)[C@@H]1C(=O)C[C@@H]1[C@@]3(C)CCC(=O)C(C)(C)[C@@H]3CC[C@]12C,2439.3,–,–,–,–,–,–
CC(C)=CCC[C@](C)(O[C@@H]1O[C@H](CO)[C@H](O)[C@H](O)[C@H]1O)[C@H]1CC[C@]2(C)[C@@H]1C(=O)C[C@@H]1[C@@]3(C)CC[C@H](O)C(C)(C)[C@@H]3CC[C@]12C,975.82,2.78,4.81,2.04,3.28,6.35,–
CC(C)=CCC[C@](C)(O[C@@H]1O[C@H](CO)[C@@H](O)[C@H](O)[C@H]1O)[C@H]1CC[C@]2(C)[C@@H]1C(=O)C[C@@H]1[C@@]3(C)CC=CC(C)(C)[C@@H]3CC[C@]12C,1191.08,3.24,5.61,2.86,4.89,5.76,–
CO/N=C1\CC[C@]2(C)[C@H]3CC(=O)[C@@H]4[C@@H]([C@](C)(CCC=C(C)C)O[C@@H]5O[C@H](CO)[C@@H](O)[C@H](O)[C@H]5O)CC[C@@]4(C)[C@]3(C)CC[C@H]2C1(C)C,2023.54,–,–,–,–,–,–
CC(C)=CCC[C@](C)(O[C@@H]1O[C@H](CO)[C@@H](O)[C@H](O)[C@H]1O)[C@H]1CC[C@]2(C)[C@@H]1C(=O)C[C@@H]1[C@@]3(C)CC[C@H](O)C(C)(C)[C@@H]3CC[C@]12C,1237.11,3.13,5.9,2.18,4.65,6.79,–
CC(C)=CCC[C@](C)(O[C@@H]1O[C@H](CO)[C@@H](O)[C@H](O)[C@H]1O)[C@H]1CC[C@]2(C)[C@@H]1/C(=N/O)C[C@@H]1[C@@]3(C)CC/C(=N\O)C(C)(C)[C@@H]3CC[C@]12C,1258.27,5.06,4.93,3.4,5.72,5.73,–
CC(C)=CCC[C@](C)(O[C@@H]1O[C@H](CO)[C@@H](O)[C@H](O)[C@@H]1O)[C@H]1CC[C@]2(C)[C@@H]1C(=O)C[C@@H]1[C@@]3(C)CC[C@H](O)C(C)(C)[C@@H]3CC[C@]12C,1136.96,3.54,4.94,2.83,3.58,5.97,–
CC(C)CCC[C@](C)(O[C@@H]1O[C@H](CO)[C@@H](O)[C@H](O)[C@H]1O)[C@H]1CC[C@]2(C)[C@@H]1C(=O)C[C@@H]1[C@@]3(C)CC[C@H](O)C(C)(C)[C@@H]3CC[C@]12C,1976.31,–,–,–,–,–,–
CC(C)=CCC[C@](C)(O[C@@H]1O[C@H](CO)[C@@H](O)[C@H](O)[C@H]1O)[C@H]1CC[C@]2(C)[C@@H]1[C@H](O)C[C@@H]1[C@@]3(C)CC[C@H](O)C(C)(C)[C@@H]3CC[C@]12C,1501.85,4.14,5.04,2.47,4.79,6.21,–
CC(C)=CCC[C@](C)(O[C@@H]1O[C@H](CO)[C@@H](O)[C@H](O)[C@H]1O)[C@H]1CC[C@]2(C)[C@@H]1C(=O)C[C@@H]1[C@@]3(C)CC/C(=N\O)C(C)(C)[C@@H]3CC[C@]12C,1968.31,–,–,–,–,–,–
